Laboratory results from the supplement of paper PMC6045584.
± gives the standard deviation of the averaged measurements.

Key:
CABOZANTINIB = compound: COc1cc2nccc(Oc3ccc(NC(=O)C4(C(=O)Nc5ccc(F)cc5)CC4)cc3)c2cc1OC [CABOZANTINIB]; experiment: surviving fraction relative to DMSO-only wells; higher = less growth inhibition; conditions: exposure time: 5 days
Summary of the method: (§1)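 Surviving fraction is CellTiter-Glo luminescence divided by the median of wells given DMSO only. For this, log-phase tumour cell lines went into 384-well plates at 250–500 cells per well and, 24 hours later, into five days of continuous inhibitor exposure at 0.5, 1, 5, 10, 50, 100, 500 and 1000 nM. Lines were screened three times and retained only if replicate Pearson r >0.7 and median Z' >0.3.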

LENVATINIB = compound: COc1cc2nccc(Oc3ccc(NC(=O)NC4CC4)c(Cl)c3)c2cc1C(N)=O [LENVATINIB]; experiment: as above; conditions: exposure time: 5 days
Summary of the method: as §1

| Test System | surviving fraction (CABOZANTINIB; 0.5 nM) | surviving fraction (CABOZANTINIB; 1 nM) | surviving fraction (CABOZANTINIB; 5 nM) | surviving fraction (CABOZANTINIB; 10 nM) | surviving fraction (CABOZANTINIB; 50 nM) | surviving fraction (CABOZANTINIB; 100 nM) | surviving fraction (CABOZANTINIB; 500 nM) | surviving fraction (CABOZANTINIB; 1000 nM) | surviving fraction (LENVATINIB; 0.5 nM) | surviving fraction (LENVATINIB; 1 nM) | surviving fraction (LENVATINIB; 5 nM) | surviving fraction (LENVATINIB; 10 nM) | surviving fraction (LENVATINIB; 50 nM) | surviving fraction (LENVATINIB; 100 nM) | surviving fraction (LENVATINIB; 500 nM) | surviving fraction (LENVATINIB; 1000 nM) |
| --- | --- | --- | --- | --- | --- | --- | --- | --- | --- | --- | --- | --- | --- | --- | --- | --- |
| LNCAP PROSTATE | 0.622 ± 0.084 | 1.02 ± 0.041 | 0.925 ± 0.05 | 0.897 ± 0.1 | 0.936 ± 0.042 | 0.976 ± 0.057 | 0.766 ± 0.013 | 0.383 ± 0.023 | 1.16 ± 0.031 | 0.973 ± 0.044 | 0.904 ± 0.17 | 0.896 ± 0.1 | 1.02 ± 0.13 | 0.924 ± 0.16 | 0.909 ± 0.12 | 0.533 ± 0.073 |
| JURKAT HAEMATOPOIETIC AND LYMPHOID TISSUE | 1.07 ± 0.015 | 1.03 ± 0.014 | 1.05 ± 0.042 | 1.05 ± 0.022 | 0.998 ± 0.036 | 0.985 ± 0.017 | 1.04 ± 0.021 | 0.972 ± 0.0044 | 1.06 ± 0.011 | 1.08 ± 0.024 | 1.03 ± 0.035 | 1.02 ± 0.041 | 1 ± 0.039 | 1.02 ± 0.038 | 1.013 ± 0.009 | 0.964 ± 0.032 |
| CHLA90 AUTONOMIC GANGLIA | 0.917 ± 0.024 | 0.936 ± 0.052 | 0.9 ± 0.065 | 0.863 ± 0.016 | 0.913 ± 0.023 | 0.907 ± 0.072 | 0.868 ± 0.11 | 0.856 ± 0.097 | 0.984 ± 0.039 | 0.999 ± 0.043 | 0.954 ± 0.05 | 1 ± 0.077 | 0.972 ± 0.049 | 0.939 ± 0.051 | 1.05 ± 0.043 | 1.04 ± 0.034 |
| MDAMB468 BREAST | 1.04 ± 0.089 | 1.11 ± 0.044 | 1.05 ± 0.057 | 1.09 ± 0.017 | 1.13 ± 0.067 | 1.15 ± 0.07 | 1.05 ± 0.086 | 1.07 ± 0.092 | 1.04 ± 0.059 | 1.12 ± 0.047 | 1.11 ± 0.092 | 1.09 ± 0.016 | 1.14 ± 0.086 | 1.1 ± 0.1 | 1.1 ± 0.056 | 1.05 ± 0.05 |
| HSSYII SYNOVIAL | 0.909 ± 0.022 | 0.927 ± 0.067 | 0.935 ± 0.048 | 0.923 ± 0.025 | 0.963 ± 0.071 | 0.888 ± 0.014 | 0.787 ± 0.0083 | 0.671 ± 0.043 | 0.933 ± 0.057 | 0.961 ± 0.028 | 0.952 ± 0.018 | 0.942 ± 0.06 | 0.842 ± 0.026 | 0.724 ± 0.024 | 0.38 ± 0.024 | 0.3 ± 0.017 |
| H23 LUNG | 0.962 ± 0.052 | 0.931 ± 0.021 | 0.974 ± 0.022 | 0.924 ± 0.032 | 0.945 ± 0.043 | 0.936 ± 0.053 | 0.937 ± 0.066 | 0.925 ± 0.028 | 1.03 ± 0.054 | 1.05 ± 0.06 | 1.06 ± 0.079 | 1.05 ± 0.08 | 1.05 ± 0.049 | 1.12 ± 0.074 | 1.15 ± 0.068 | 1.17 ± 0.069 |
